Source: US20250332112A1, “IONIZABLE CATIONIC LIPIDS FOR LIPID NANOPARTICLES” (GENEVANT SCIENCES GMBH, priority 2022, published 2025)

Assays:
[1] = cited from earlier work
[2] = Lipid clearance from liver over time after EGFP mRNA LNP (LC-MS); type: in vivo; conditions: IV 0.5 mg/kg EGFP mRNA LNP, female BALB/c mice (n = 4)
Procedure: Liver tissues were treated with PBS and homogenized with a FastPrep machine, 3 cycles of 5 m/s×15 s. Homogenates from the PBS-treated control animals was pooled and used for standard curve preparation. Samples were extracted into a deep well plate with 250 μL of an internal suitability standard. Plates were centrifuged for 15 min at 4° C. and 2000 rpm. Analysis was performed using an Agilent 6520 QTOF coupled to an Agilent 1290 UHPLC, using reverse-phase LC separation. Quantitation of the ionizable lipid was by MS/MS against a calibration curve spiked into appropriately matched blank matrix. Calibration used a similar class of synthetic lipid as internal standard.
At various timepoints post-dose, lipid levels were assessed in the liver. Some novel ionizable lipids reported more rapid clearance rates compared to the benchmark (Table 33).

[3] = tested on: EGFP expression in the liver; experiment: Dose response of EGFP mRNA LNP, EGFP expression in liver; type: in vivo; conditions: 24 h, female BALB/c mice (n = 4)
Procedure: At 24 h post-dose, the novel lipid formulations reported dose-dependent increases in EGFP expression in the liver (Table 32).

[4] = Parent ionizable lipid remaining in liver at 24 h after EGFP mRNA LNP (LC-MS); type: in vivo; conditions: Table 30; 24 h after IV 0.5 mg/kg EGFP mRNA LNP, female BALB/c mice (n = 4)
[5] = tested on: EGFP expression in the liver; experiment: EGFP expression in liver after intravenous EGFP mRNA LNP (ELISA); conditions: Table 26; 0.5 mg/kg IV, 24 h post-IV administration, BALB/c mice (n = 4)
Procedure: LNP formulations encapsulating enhanced green fluorescent protein mRNA were injected intravenously at 0.5 mg/kg to female BALB/c mice (6-8 weeks old). On day of injection, the LNP stocks were filtered and diluted to the required dosing concentration with phosphate buffered saline. At 24 hours post-administration, animals were anaesthetized with a lethal dosage of ketamine/xylazine. Liver samples (left lateral lobe) were collected, weighed, and flash frozen in liquid nitrogen. Liver samples were stored in FastPrep® tubes at −80° C. until analyzed for EGFP expression.
Liver homogenates were prepared in cell extraction buffer, diluted, and analyzed for EGFP protein levels using ELISA, according to manufacturer's instructions (Abcam, GFP ELISA Kit).

[6] = Particle characteristics of LNPs containing EGFP mRNA and novel ionizable lipids; type: physicochemical; conditions: Table 22; EGFP mRNA LNP 1.6:54.6:32.8:10.9
Procedure, shortened: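 LNPs of PEG-lipid, ionizable lipid, cholesterol and phospholipid in ethanol were mixed 1:1 with mRNA in 100 mM acetate pH 5 via T-junction, diluted in PBS, dialysed, concentrated to ~0.6 mg/mL and exchanged into 5 mM Tris, 10% sucrose, pH 8. Size and polydispersity by Zetasizer; nucleic acid by RiboGreen.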

SMILES: CCCCCCCCC(CCCCCC)C(=O)OCCCCCCN(CCCCO)CCCCCCOC(=O)C(CCCCCC)CCCCCCCC (stereo not shown) [ALC-0315]
- Rate of metabolism (in words) ([1]; ref: Comirnaty Assessment Report, European Medicines Agency): metabolize at a similar rate to MC3

SMILES: CCCCCCCCCCN(C(=O)CCCN(C)C)C(CCCCCCCCC)CCCCCCC(F)C(=O)OC(CCCCCCCC)CCCCCCCC (stereo not shown) [Compound 115, Heptadecan-9-yl 9-(N-decyl-4-(dimethylamino)butanamido)-2-fluorooctadecanoate]
- Parent ionizable lipid remaining in liver, Average ([2]; 0.25 h post-dose): 36.7 nmol/g liver
- Parent ionizable lipid remaining in liver, Average ([2]; 1 h post-dose): 51.3 nmol/g liver
- Parent ionizable lipid remaining in liver, Average ([2]; 3 h post-dose): 44.8 nmol/g liver
- Parent ionizable lipid remaining in liver, Average ([2]; 6 h post-dose): 45.3 nmol/g liver
- Parent ionizable lipid remaining in liver, Average ([2]; 24 h post-dose): 0.0 nmol/g liver
- Parent ionizable lipid remaining in liver, Average ([2]; 168 h post-dose): 1.3 nmol/g liver
- EGFP expression ([3]; 0.3 mg/kg IV): 2.98e+07 pg EGFP/g liver
- EGFP expression ([3]; 1 mg/kg IV): 1.31e+08 pg EGFP/g liver
- EGFP expression ([3]; 3 mg/kg IV): 3.41e+08 pg EGFP/g liver
- Parent ionizable lipid remaining in liver, Average [4]: 27.15 nmol/g liver
- EGFP [5]: 6.06E+07 pg/g liver
- Final Product % EE [6]: 98%
- Final Product PDI [6]: 0.04
- Final Product Z-avg [6]: 72 nm

SMILES: CCCCC/C=C\C/C=C\CCCCCCCCC(CCCCCCCC/C=C\C/C=C\CCCCC)OC(=O)CCCN(C)C [MC3]
- Clearance from target tissues (in words) ([1]; in vivo): take several weeks to clear from target tissues
